Results: patent US12514840B2, “Treatment of idiopathic hypohidrosis” (NATIONAL SKIN CENTRE (SINGAPORE) PTE LTD, priority 2019, dated 2026)

Tests used:
Type in all cases: in vivo, human
[1] = system: sweat apparatus (glands or ducts) of patients with idiopathic hypohidrosis; assay: Injection of Carbachol to locate the pathology in idiopathic hypohidrosis (induction of sweating)
[2] = system: patients with idiopathic hypohidrosis; assay: Long term retrospective assessment of 28 patients with idiopathic hypohidrosis, 20 treated with retinoids
Method: A retrospective analysis on patients with isolated hypohidrosis who attended a neuro-dermatology clinic over a 5.75-year period was conducted. All patients routinely underwent standardized exercising and whole-body starch-iodine test, followed by non-invasive HD-OCT skin imaging, and their treatment history was analysed.
28 patients with idiopathic hypohidrosis were included in the study, 14 of whom were affected in a generalised manner (with 70% and more of body surface affected) and 14 in a partial manner. 14 of the 28 patients were those which were the subject of Example 1, and 14 patients were new.

[3] = system: patients with idiopathic hypohidrosis; assay: Treatment of fourteen patients with idiopathic hypohidrosis with oral retinoids (exercise, starch-iodine sweat test, HD-OCT); settings: for patients who responded and were successfully treated: generalised hypohidrosis, three with acitretin (one did not respond)
Method: Fourteen patients presenting with idiopathic hypohidrosis underwent monitored exercising on a stationary bicycle for 20 minutes. Their temperature and heart rate were repeatedly measured during the exercise. Subsequently, using a spray gun, starch-iodine powder was sprayed onto the whole body of the patient and the powder coats onto the skin (FIG. 1). The coat of powder on body areas with sweating turned purple, while the powder in areas without sweat remained brown (FIG. 2). This allows the body surface area of anhidrosis to be assessed. Thereafter, the patient rinsed off the powder, which washed off easily with water.
The patients' skin was subsequently imaged using high-definition optical coherence tomography (HD-OCT) non-invasive skin imaging (Skintell, Agfa, Belgium). HD-OCT uses an infrared (1000-1700 nm), interferometric and time-domain imaging technique. Instead of a single pin diode light detector, it uses a two-dimensional imaging array to allow for simultaneous cross-sectional and en face images acquisition. A high lateral resolution of 3 μm is ensured using a technique called continuous focus tracking. The capture of a 3D image (containing 57 million voxels) takes 2-3 seconds and the information acquired can subsequently be digitally analysed.
The fourteen patients suffering from idiopathic hypohidrosis were offered treatment according to the invention.
All of the treated patients were started on an oral dose of isotretinoin or acitretin of between 5 and 20 mg once daily for at least six weeks. If necessary, this dose was adjusted, whether increased because the initial dose was ineffective, or decreased to reduce the expected side effects associated with oral retinoids. All patients responded to a dose of between 10 and 30 mg once daily. This dose was further adjusted as required until symptoms of idiopathic hypohidrosis had resolved. Administration of retinoids was continued to prevent reoccurrence of symptoms.

[4] = five treated with isotretinoin, oral once daily
[5] = one patient successfully treated with isotretinoin

C[N+](C)(C)CCOC(N)=O [Carbachol]
induction of sweating ([1]; injection at regions where patients could sweat): induced sweating | induction of sweating ([1]; injection in areas where patients cannot sweat): could not do so

COc1cc(C)c(/C=C/C(C)=C/C=C/C(C)=C/C(=O)O)c(C)c1C [acitretin]
patients recovered ([2]; of three patients treated, one did not respond): 2 patients | patients who responded and were successfully treated [3, 4]: Two of the three

CC1=C(/C=C/C(C)=C/C=C/C(C)=C\C(=O)O)C(C)(C)CCC1 [isotretinoin, 13-cis-retinoic acid]
patients recovered well enough to return to their pre-morbid sporting activities ([2]; seventeen patients (7 generalised and 10 partial), oral): 100% | patients who responded and were successfully treated [3, 4]: All five | HD-OCT imaging of lesions after treatment [3, 5]: no longer visible | sweat test after treatment [3, 5]: normalised extent of sweating | patients who responded to treatment and were successfully treated ([3]; partial hypohidrosis, five treated with isotretinoin, oral once daily): All five
